Reference: patent US11840686B2, “Modulation of prekallikrein (PKK) expression” (Ionis Pharmaceuticals, Inc., priority 2013, dated 2023)
Strand notation (5' to 3'): a small letter for the sugar, then the base; units joined by * are phosphorothioate-linked, units joined directly phosphodiester-linked; [ ] holds rarer units or linkages, { } end groups; capitals alone tell only the bases. e = 2'-O-(2-methoxyethyl) (MOE); [5mC] = 5-methylcytosine; d = 2'-deoxy (DNA)

Test system: human PKK mRNA
Assay: Antisense inhibition of human PKK mRNA in HepaRG cells, 3,000 nM (Example 1)
Type: cell-based
Settings: relative to untreated control cells
Procedure: Antisense oligonucleotides were designed targeting a PKK nucleic acid and were tested for their effects on PKK mRNA in vitro. HepaRG™ cells, which are terminally differentiated hepatic cells derived from a human hepatic progenitor cell line and retain many characteristics of primary human hepatocytes (Lubberstedt M. et al., J. Pharmacol. Toxicol. Methods 2011 63: 59-68), were used in the screen.
The chimeric antisense oligonucleotides in the tables below were designed as 5-10-5 MOE gapmers. The gapmers are 20 nucleosides in length, wherein the central gap segment comprises of ten 2′-deoxynucleosides and is flanked by wing segments on the 5′ direction and the 3′ direction comprising five nucleosides each. Each nucleoside in the 5′ wing segment and each nucleoside in the 3′ wing segment has a 2′-O-methoxyethyl modification. The internucleoside linkages throughout each gapmer are phosphorothioate linkages. All cytosine residues throughout each gapmer are 5-methylcytosines. “Start site” indicates the 5′-most nucleoside to which the gapmer is targeted in the human gene sequence. “Stop site” indicates the 3′-most nucleoside to which the gapmer is targeted in the human gene sequence.
Cultured HepaRG™ cells at a density of 20,000 cells per well were transfected using electroporation with 3,000 nM antisense oligonucleotide. After a treatment period of approximately 24 hours, RNA was isolated from the cells and PKK mRNA levels were measured by quantitative real-time PCR. Human primer probe set RTS3454 (forward sequence […], designated herein as SEQ ID NO: 20; reverse sequence […], designated herein as SEQ ID NO: 21; probe sequence […], designated herein as SEQ ID NO: 22) was used to measure mRNA levels. PKK mRNA levels were adjusted according to total RNA content, as measured by RIBOGREEN®. The antisense oligonucleotides were tested in a series of experiments that had similar culture conditions. Results are presented as percent inhibition of PKK, relative to untreated control cells.

[1] = Table 3, HepaRG cells, electroporation with 3,000 nM antisense oligonucleotide, approx. 24 hours, PKK mRNA by RT-PCR (RTS3454)
[2] = Table 4, HepaRG cells, electroporation with 3,000 nM antisense oligonucleotide, approx. 24 hours, PKK mRNA by RT-PCR (RTS3454)
[3] = Table 1, PKK mRNA, HepaRG cells, 3,000 nM, electroporation, ~24 h
[4] = Table 2, PKK mRNA, HepaRG cells, 3,000 nM, electroporation, ~24 h

531142 (antisense eT*eG*eT*eT*eT*dA*dA*dA*dA*dT*dA*dT*d[5mC]*dT*d[5mC]*eT*eA*eT*eA*e[5mC]) [compound 531142]
% inhibition [1]: 8%

531203 (eT*eG*eA*e[5mC]*eT*dA*dT*d[5mC]*d[5mC]*dA*dA*dT*dT*dT*d[5mC]*eT*eA*eG*eT*eT; antisense) [compound 531203]
% inhibition [2]: 67%

531185 (antisense eG*eG*eA*e[5mC]*e[5mC]*dA*dA*dA*dA*d[5mC]*dT*dG*dA*dG*dA*eG*eG*e[5mC]*eA*eG) [compound 531185]
% inhibition [2]: 63%

531156 (antisense eT*e[5mC]*eT*eG*eA*dA*dA*dA*dG*d[5mC]*d[5mC]*d[5mC]*dT*d[5mC]*d[5mC]*eG*eA*eG*e[5mC]*eT) [compound 531156]
% inhibition [1]: 0%

530998 (eA*eG*eT*eG*eA*dA*dA*dA*dA*d[5mC]*dT*dG*dA*d[5mC]*dA*eG*e[5mC]*eG*eA*eA; antisense) [compound 530998]
% inhibition [3]: 0%

530975 (antisense eG*eT*eG*eT*eT*dT*dT*d[5mC]*dT*dT*dG*dA*dG*dG*dA*eG*eT*eA*eG*eA) [compound 530975]
% inhibition [3]: 41%

531066 (eA*eG*e[5mC]*eG*eA*d[5mC]*dT*dT*dT*dG*dG*dT*dG*dT*dA*eG*eA*e[5mC]*eA*e[5mC]; antisense) [compound 531066]
% inhibition [4]: 67%

531165 (antisense eG*eT*eA*eA*eT*dA*dA*dA*dA*dG*dG*dA*dA*dT*dG*eA*eT*eA*eA*eA) [compound 531165]
% inhibition [2]: 0%

531098 (eT*eT*eA*eT*eT*dA*dG*dT*d[5mC]*dA*dA*dA*dT*d[5mC]*dA*e[5mC]*e[5mC]*e[5mC]*eA*eA; antisense) [compound 531098]
% inhibition [1]: 19%

530947 (antisense eG*eA*eA*eG*e[5mC]*dT*dA*d[5mC]*dA*dT*d[5mC]*d[5mC]*d[5mC]*d[5mC]*dA*e[5mC]*e[5mC]*eT*e[5mC]*eT) [compound 530947]
% inhibition [3]: 27%

530946 (antisense eT*eA*e[5mC]*eA*eT*d[5mC]*d[5mC]*d[5mC]*d[5mC]*dA*d[5mC]*d[5mC]*dT*d[5mC]*dT*eG*eA*eA*eG*eA) [compound 530946]
% inhibition [3]: 0%

531013 (e[5mC]*e[5mC]*eA*eG*eG*dG*d[5mC]*d[5mC]*dA*d[5mC]*dT*d[5mC]*dT*d[5mC]*d[5mC]*e[5mC]*e[5mC]*eA*eA*eG; antisense) [compound 531013]
% inhibition [4]: 56%

531193 (eT*eT*eA*eT*eT*d[5mC]*d[5mC]*d[5mC]*dA*dG*d[5mC]*dT*d[5mC]*dT*dA*eA*eA*eA*eT*eA; antisense) [compound 531193]
% inhibition [2]: 23%

531225 (eA*e[5mC]*eA*e[5mC]*eT*dT*dG*dT*dA*d[5mC]*d[5mC]*d[5mC]*d[5mC]*dA*dT*eA*e[5mC]*eA*eT*e[5mC]; antisense) [compound 531225]
% inhibition [2]: 45%

531092 (e[5mC]*e[5mC]*eT*eT*e[5mC]*dA*d[5mC]*dT*dG*dA*d[5mC]*dT*d[5mC]*dT*d[5mC]*eT*eT*eT*eT*e[5mC]; antisense) [compound 531092]
% inhibition [1]: 24%

531197 (eT*eA*e[5mC]*e[5mC]*eT*dT*dT*dT*d[5mC]*dT*d[5mC]*d[5mC]*dA*dT*dG*eT*e[5mC]*eA*eT*eT; antisense) [compound 531197]
% inhibition [2]: 42%

531178 (antisense eA*e[5mC]*e[5mC]*eA*e[5mC]*dA*dG*dG*dA*dA*dA*d[5mC]*dT*dG*dT*eA*eG*e[5mC]*eA*eA) [compound 531178]
% inhibition [2]: 72%

531020 (eA*eA*eG*e[5mC]*e[5mC]*d[5mC]*dA*dT*d[5mC]*dA*dA*dA*dG*d[5mC]*dA*eG*eT*eG*eG*eG; antisense) [compound 531020]
% inhibition [4]: 0%

531040 (antisense eT*e[5mC]*e[5mC]*eT*eT*d[5mC]*dG*dA*dG*dA*dA*dG*d[5mC]*d[5mC]*d[5mC]*e[5mC]*eA*eT*e[5mC]*e[5mC]) [compound 531040]
% inhibition [4]: 27%

531057 (antisense e[5mC]*eA*eT*e[5mC]*eT*dT*dT*dT*d[5mC]*d[5mC]*d[5mC]*d[5mC]*d[5mC]*dT*dT*e[5mC]*eT*eT*eT*eA) [compound 531057]
% inhibition [4]: 48%

531200 (e[5mC]*eA*eA*eA*eA*dT*d[5mC]*dA*d[5mC]*dA*dA*dG*dT*dT*d[5mC]*eT*eA*eG*eA*eT; antisense) [compound 531200]
% inhibition [2]: 51%

531116 (antisense eT*eT*eG*eT*eT*dA*dA*dG*dG*dT*dT*dG*dT*dA*dG*eA*eG*eA*eG*eA) [compound 531116]
% inhibition [1]: 23%

530997 (eA*eA*eA*eA*e[5mC]*dT*dG*dA*d[5mC]*dA*dG*d[5mC]*dG*dA*dA*eT*e[5mC]*eA*eT*e[5mC]; antisense) [compound 530997]
% inhibition [3]: 39%

531067 (eT*eA*e[5mC]*eT*e[5mC]*dA*dG*d[5mC]*dG*dA*d[5mC]*dT*dT*dT*dG*eG*eT*eG*eT*eA; antisense) [compound 531067]
% inhibition [4]: 31%

531148 (antisense eT*eA*e[5mC]*e[5mC]*e[5mC]*dA*dA*dA*dT*dT*dA*dT*dA*d[5mC]*d[5mC]*eT*eG*eG*eA*eA) [compound 531148]
% inhibition [1]: 8%

530956 (antisense eA*e[5mC]*eA*e[5mC]*eT*dA*dT*d[5mC]*dT*dT*dT*d[5mC]*dA*dA*dG*eA*eA*eG*e[5mC]*eA) [compound 530956]
% inhibition [3]: 57%

531094 (eG*eA*eA*eT*eG*dT*d[5mC]*dA*dG*dG*d[5mC]*d[5mC]*dT*d[5mC]*dT*eG*eG*eG*e[5mC]*e[5mC]; antisense) [compound 531094]
% inhibition [1]: 48%

531109 (antisense eA*eG*e[5mC]*e[5mC]*e[5mC]*dA*dA*dG*dG*dA*dA*d[5mC]*dA*dT*d[5mC]*eT*e[5mC]*eA*e[5mC]*e[5mC]) [compound 531109]
% inhibition [1]: 52%

531003 (eA*eA*e[5mC]*e[5mC]*eA*dG*dA*dG*d[5mC]*dT*d[5mC]*d[5mC]*d[5mC]*dT*dT*eG*eT*eG*eT*e[5mC]; antisense) [compound 531003]
% inhibition [3]: 49%

531209 (eT*eG*eG*eA*eT*dT*d[5mC]*dA*dT*dT*dT*dT*d[5mC]*dT*dG*e[5mC]*eA*eA*eA*eT; antisense) [compound 531209]
% inhibition [2]: 81%

531176 (antisense eT*eT*eA*eT*eG*dA*dA*dA*d[5mC]*d[5mC]*dT*d[5mC]*dT*dT*dG*eA*eT*eT*eT*eG) [compound 531176]
% inhibition [2]: 0%

531184 (antisense eA*e[5mC]*eT*e[5mC]*eT*dT*dA*dT*dT*dA*dG*d[5mC]*dT*dG*dG*eT*eA*eG*eA*eA) [compound 531184]
% inhibition [2]: 74%

531216 (eA*eA*eA*e[5mC]*eA*d[5mC]*dA*dG*dG*dA*dA*dT*dT*dT*dG*e[5mC]*eA*eG*eA*e[5mC]; antisense) [compound 531216]
% inhibition [2]: 33%

530966 (antisense eA*eA*eT*eT*eT*d[5mC]*dT*dG*dA*dA*dA*dG*dG*dG*d[5mC]*eA*e[5mC]*eA*eG*eG) [compound 530966]
% inhibition [3]: 58%

531226 (eG*eA*e[5mC]*eA*eG*dT*dA*dG*dA*dG*dA*d[5mC]*dT*dG*dG*eG*eA*eA*eG*eG; antisense) [compound 531226]
% inhibition [2]: 12%

530950 (antisense eA*e[5mC]*e[5mC]*eT*eT*dG*dG*dG*dT*dG*dG*dA*dA*dT*dG*eT*eG*e[5mC]*eA*e[5mC]) [compound 530950]
% inhibition [3]: 47%

531000 (eA*eA*eG*eA*eA*dA*d[5mC]*dA*d[5mC]*dT*dT*dA*d[5mC]*dA*d[5mC]*eT*eT*e[5mC]*eT*e[5mC]; antisense) [compound 531000]
% inhibition [3]: 1%

531224 (eA*eA*eG*eA*eG*dA*dA*dT*dG*d[5mC]*dT*d[5mC]*dA*dG*dA*eA*eA*eT*eG*eG; antisense) [compound 531224]
% inhibition [2]: 25%

531206 (eG*eA*eA*eA*eT*dG*dT*d[5mC]*dT*dA*dG*d[5mC]*dA*dT*dT*eT*eT*e[5mC]*eT*eA; antisense) [compound 531206]
% inhibition [2]: 28%

530986 (e[5mC]*eG*eG*eG*eT*dA*dA*dA*dT*dT*dT*dT*dA*dG*dA*eA*eT*eG*eG*e[5mC]; antisense) [compound 530986]
% inhibition [3]: 62%

531131 (antisense eT*eA*eG*eA*eA*dA*dG*dA*dG*dT*dA*dA*dG*d[5mC]*d[5mC]*eT*eT*e[5mC]*eA*e[5mC]) [compound 531131]
% inhibition [1]: 0%

531169 (antisense eT*eG*eG*eG*e[5mC]*dT*d[5mC]*dA*d[5mC]*d[5mC]*d[5mC]*d[5mC]*dA*dG*dT*eG*eG*eA*e[5mC]*e[5mC]) [compound 531169]
% inhibition [2]: 54%
